Laboratory results as given in article PMC3377984 (Journal of Molecular Neuroscience, 2012).

Columns and labels:
Mouse scPTZ = experiment: Subcutaneous pentylenetetrazol; assay type: in vivo
Rat MES = experiment: Maximal electroshock test; assay type: in vivo; settings: at 30 mg/kg
Mouse 6-Hz test = experiment: 6-Hz seizure test, mouse; assay type: in vivo; settings: at 100 mg/kg
rat hippocampal cultures = experiment: Neuroprotection from acute glutamate toxicity, CFDA neuronal viability assay; assay type: cell-based; settings: initial testing of the core compound; assay not specified
Mouse MES = experiment: Maximal electroshock test; assay type: in vivo; settings: at 100 mg/kg
[1] = Caco-2 bidirectional permeability assay; assay type: in vitro ADME, human; settings: human
Caco-2 cells = experiment: Caco-2 bidirectional permeability assay; assay type: in vitro ADME, human

Mouse scPTZ (s.c. EC50) (Mouse scPTZ; PTZ 85 mg/kg s.c.)	Papp A→B at 5 µM [1]	Papp B→A at 5 µM [1]	efflux ratio at 5 µM [1]	Permeability classification (Caco-2 cells)	Significant efflux (Caco-2 cells)	SMILES	activity in the mouse pentylenetetrazol model (Mouse scPTZ; at 300 mg/kg i.p.)	Rat MES (oral), animals protected/tested (Rat MES)	Mouse 6-Hz test (i.p.), animals protected/tested (Mouse 6-Hz test)	potency for neuroprotection (rat hippocampal cultures)	Mouse MES (i.p.), animals protected/tested (Mouse MES)
>300 mg/kg	–	–	–	–	–	NS(=O)(=O)NCC(O)c1ccccc1F (stereo not shown) [AND-171, 2-(2-Fluorophenyl)-2-hydroxyethylsulfamide]	no demonstrated activity	1/4 at 30 mg/kg	1/4 at 100 mg/kg	0.03 to 0.1 µM	1/3 at 100 mg/kg
–	0.62 ×10⁻⁶ cm/s	12.5 ×10⁻⁶ cm/s	20.2	Low	Yes	C[C@H]1O[C@@H](O[C@H]2[C@@H](O)C[C@H](O[C@H]3[C@@H](O)C[C@H](O[C@H]4CC[C@@]5(C)[C@H](CC[C@@H]6[C@@H]5C[C@@H](O)[C@]5(C)[C@@H](C7=CC(=O)OC7)CC[C@]65O)C4)O[C@@H]3C)O[C@@H]2C)C[C@H](O)[C@@H]1O [Digoxin control, Digoxin]	–	–	–	–	–
–	17.1 ×10⁻⁶ cm/s	–	–	High	–	CC(C)NCC(O)COc1cccc2ccccc12 (stereo not shown) [Propranolol control, Propranolol]	–	–	–	–	–
